Assay results reported in patent publication US20230081426A1, “COMPOUNDS AND METHODS FOR KRAS MODULATION AND INDICATIONS THEREFOR” (Plexxikon Inc., priority 2020, published 2023).

Key:
[1] = molecular target: T1, G12D-mutant human KRAS (amino acid residues 1-188) (Homo sapiens, UniProt P01116, G12D); assay: KRAS Binding Disruption Assay (AlphaScreen; biotinylated KRpep-2d analogue or RAF1-RBD), G12D; conditions: KRAS G12D; geometric mean; read-out: KRAS GMean IC50 (uM) MUTATION: G12D
T1 construct: G12D or G12C-mutant human KRAS (amino acid residues 1-188) with FLAG tag; made in house; host or cells: E. coli
Procedure, shortened: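 Compounds are titrated against 5-20 nM mutant KRAS and 5-20 nM of either a biotinylated KRpep-2d analogue or RAF1-RBD, incubated 1 h at 25° C. Disruption is detected as reduced Alpha signal after 1 h with donor and acceptor beads at 10 μg/mL.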

[2] = molecular target: T2, G12V-mutant human KRAS (amino acid residues 1-188) (Homo sapiens, UniProt P01116, G12V); assay: KRAS Binding Competition Assay (AlphaScreen; biotinylated KRpep-2d analogue), G12V; conditions: geometric mean, read-out: KRAS GMean IC50 (uM) MUTATION: G12V
T2 construct: G12V-mutant human KRAS (amino acid residues 1-188) with FLAG tag was purified from E. coli; made in house; host or cells: E. coli
Protocol: Compound binding disrupts the interaction of KRpep-2d with KRAS, leading to a decrease in Alpha signal.
All assay components were prepared in 20 mM HEPES (pH 7.5), 100 mM NaCl, 5 mM MgCl2, 0.01% Tween-20, and 0.01% BSA. Biotinylated analogues of KRpep-2d were custom synthesized. The binding competition assays were performed using 10 nM of mutant KRAS and 10 nM of biotinylated KRpep-2d analogue. 19 μL of KRAS protein and 4 μL of biotinylated KRpep-2d were added to the wells of a 384-well plate containing 1 μL of various concentrations of test compound or DMSO vehicle. 16 wells containing KRAS, biotinylated KRpep-2d, and 5% DMSO served as high controls. 16 wells containing KRAS only and 5% DMSO served as low controls. Binding reactions were incubated for 1 hour at 25° C., then Anti-Flag Acceptor and Streptavidin Donor Alpha beads were added at a final concentration of 10 μg/mL for an additional hour at room temperature. Alpha signal was read out on a Perkin Elmer Envision HTS instrument. The percentage inhibition at individual compound concentrations relative to high and low controls was calculated. The data were analyzed by using nonlinear regression to generate IC50 values.

Row | IC50 [1] [µM] | IC50 [2] [µM] | Structure (SMILES)
1 | 10 to 100 | 100 to 1000 | CN1CCC[C@H]1COc1nc(N2C[C@H]3CC[C@@H](C2)N3)c2ccc(-c3cncc(Cl)c3Cl)cc2n1 [P-0234, 4-((1R,5S)-3,8-diazabicyclo[3.2.1]octan-3-yl)-7-(4,5-dichloropyridin-3-yl)-2-(((S)-1-methylpyrrolidin-2-yl)methoxy)quinazoline]
2 | 0.0001 to 10 | 10 to 100 | CN1CCC[C@H]1COc1nc(N2CC3CCC2CN3)c2ccc(-c3cc(O)cc4ccccc34)cc2n1 (stereo partly drawn) [P-0050, 4-(4-(2,5-diazabicyclo[2.2.2]octan-2-yl)-2-(((S)-1-methylpyrrolidin-2-yl)methoxy)quinazolin-7-yl)naphthalen-2-ol]
3 | 10 to 100 | 10 to 100 | CN1CCC[C@H]1COc1nc(N2[C@@H]3CC[C@H]2CN(CC2(O)CCNCC2)C3)c2ccc(-c3cc(O)cc4ccccc34)cc2n1 [P-0348, 4-(((1R,5S)-8-(7-(3-hydroxynaphthalen-1-yl)-2-(((S)-1-methylpyrrolidin-2-yl)methoxy)quinazolin-4-yl)-3,8-diazabicyclo[3.2.1]octan-3-yl)methyl)piperidin-4-ol]
4 | 0.0001 to 10 | 10 to 100 | N#Cc1ccc(CCc2nc(N3[C@@H]4CC[C@H]3CNC4)c3ccc(-c4cc(O)cc5ccccc45)cc3n2)cc1 [P-0197, 4-(2-(4-((1R,5S)-3,8-diazabicyclo[3.2.1]octan-8-yl)-7-(3-hydroxynaphthalen-1-yl)quinazolin-2-yl)ethyl)benzonitrile]
5 | 10 to 100 | 100 to 1000 | C[C@@H](O)C(=O)N1C[C@H]2CC[C@@H](C1)N2c1nc(OC[C@@H]2CCCN2C)nc2cc(-c3cc(O)cc4ccccc34)ccc12 [P-0220, (R)-2-hydroxy-1-((1R,5S)-8-(7-(3-hydroxynaphthalen-1-yl)-2-(((S)-1-methylpyrrolidin-2-yl)methoxy)quinazolin-4-yl)-3,8-diazabicyclo[3.2.1]octan-3-yl)propan-1-one]
6 | 10 to 100 | 10 to 100 | CN1CCC[C@H]1COc1nc(N2[C@@H]3CC[C@H]2CNC3)c2ccc(-c3cc(O)cc4cccnc34)cc2n1 [P-0262, 8-(4-((1R,5S)-3,8-diazabicyclo[3.2.1]octan-8-yl)-2-(((S)-1-methylpyrrolidin-2-yl)methoxy)quinazolin-7-yl)quinolin-6-ol]

More lines, now with the values behind:

Row | Structure (SMILES) | IC50 [1] [µM] | IC50 [2] [µM]
7 | CN1CCC[C@H]1COc1nc(N2C[C@H]3CC[C@@H](C2)N3CC(=O)C2CCOC2)c2ccc(-c3cc(O)cc4ccccc34)c(F)c2n1 (stereo partly drawn) [P-0278, 2-((1R,5S)-3-(8-fluoro-7-(3-hydroxynaphthalen-1-yl)-2-(((S)-1-methylpyrrolidin-2-yl)methoxy)quinazolin-4-yl)-3,8-diazabicyclo[3.2.1]octan-8-yl)-1-(tetrahydrofuran-3-yl)ethan-1-one] | 0.0001 to 10 | 10 to 100
8 | O=C(N[C@H]1CCCNC1)N1[C@@H]2CC[C@H]1CN(c1nc(OCC34CCCN3CCC4)nc3cc(-c4cc(O)cc5ccccc45)ccc13)C2 [P-0142, (1R,5S)-3-(7-(3-hydroxynaphthalen-1-yl)-2-((tetrahydro-1H-pyrrolizin-7a(5H)-yl)methoxy)quinazolin-4-yl)-N-((S)-piperidin-3-yl)-3,8-diazabicyclo[3.2.1]octane-8-carboxamide] | 0.0001 to 10 | 0.0001 to 10
9 | O=C(OC1CCOC1)N1[C@@H]2CC[C@H]1CN(c1nc(OCC34CCCN3CCC4)nc3cc(-c4cc(O)cc5ccccc45)ccc13)C2 (stereo partly drawn) [P-0098, Tetrahydrofuran-3-yl (1R,5S)-3-(7-(3-hydroxynaphthalen-1-yl)-2-((tetrahydro-1H-pyrrolizin-7a(5H)-yl)methoxy)quinazolin-4-yl)-3,8-diazabicyclo[3.2.1]octane-8-carboxylate] | 0.0001 to 10 | 0.0001 to 10
10 | CN1CCC[C@H]1COc1nc(N2CC3COCC(C2)N3C(=O)CC2SC(=O)NC2=O)c2cc(Cl)c(-c3cc(O)cc4ccccc34)c(F)c2n1 (stereo partly drawn) [P-0358, 5-(2-(7-(6-chloro-8-fluoro-7-(3-hydroxynaphthalen-1-yl)-2-(((S)-1-methylpyrrolidin-2-yl)methoxy)quinazolin-4-yl)-3-oxa-7,9-diazabicyclo[3.3.1]nonan-9-yl)-2-oxoethyl)thiazolidine-2,4-dione] | 0.0001 to 10 | 0.0001 to 10
11 | CCN1CC[C@H](NC(=O)N2[C@@H]3CC[C@H]2CN(c2nc(OCC4CCCN4C)nc4c(F)c(-c5cc(O)cc6ccccc56)ccc24)C3)C1 (stereo partly drawn) [P-0418, (1R,5S)-N-((S)-1-ethylpyrrolidin-3-yl)-3-(8-fluoro-7-(3-hydroxynaphthalen-1-yl)-2-((1-methylpyrrolidin-2-yl)methoxy)quinazolin-4-yl)-3,8-diazabicyclo[3.2.1]octane-8-carboxamide] | 0.0001 to 10 | 10 to 100
12 | CN1CCC(CC(=O)N2[C@@H]3CC[C@H]2CN(c2nc(OCC45CCCN4CCC5)nc4c(F)c(-c5cc(O)cc6ccccc56)ccc24)C3)CC1 [P-0149, 1-((1R,5S)-3-(8-fluoro-7-(3-hydroxynaphthalen-1-yl)-2-((tetrahydro-1H-pyrrolizin-7a(5H)-yl)methoxy)quinazolin-4-yl)-3,8-diazabicyclo[3.2.1]octan-8-yl)-2-(1-methylpiperidin-4-yl)ethan-1-one] | 0.0001 to 10 | 0.0001 to 10
13 | CN1CCC[C@H]1COc1nc(N2CC[C@@H]3CC[C@H](C2)N3C(=O)NC2CCOC2)c2ccc(-c3cc(O)cc4ccccc34)c(F)c2n1 (stereo partly drawn) [P-0248, (1R,6 S)-3-(8-fluoro-7-(3-hydroxynaphthalen-1-yl)-2-(((S)-1-methylpyrrolidin-2-yl)methoxy)quinazolin-4-yl)-N-(tetrahydrofuran-3-yl)-3,9-diazabicyclo[4.2.1]nonane-9-carboxamide] | 10 to 100 | 0.0001 to 10
14 | CN1CCC[C@H]1COc1nc(N2C[C@H]3CC[C@@H](C2)N3)c2cc(Cl)c(-c3c[nH]c4ccc(Cl)cc34)c(F)c2n1 [P-0323, 4-((1R,5S)-3,8-diazabicyclo[3.2.1]octan-3-yl)-6-chloro-7-(5-chloro-1H-indol-3-yl)-8-fluoro-2-(((S)-1-methylpyrrolidin-2-yl)methoxy)quinazoline] | 0.0001 to 10 | 10 to 100
15 | CN1CCC[C@H]1COc1nc(N2CC3CC(C2)N3)c2cc(Cl)c(-c3cc(O)cc4ccccc34)c(F)c2n1 [P-0031, 4-(4-(3,6-diazabicyclo[3.1.1]heptan-3-yl)-6-chloro-8-fluoro-2-(((S)-1-methylpyrrolidin-2-yl)methoxy)quinazolin-7-yl)naphthalen-2-ol] | 0.0001 to 10 | 10 to 100
16 | CN(C)Cc1nc(N2C[C@H]3CC[C@@H](C2)N3)c2cc(Cl)c(-c3c(O)cccc3F)c(F)c2n1 [P-0445, 2-(4-((1R,5S)-3,8-diazabicyclo[3.2.1]octan-3-yl)-6-chloro-2-((dimethylamino)methyl)-8-fluoroquinazolin-7-yl)-3-fluorophenol] | 10 to 100 | 10 to 100
17 | Oc1cc(-c2ccc3c(N4C[C@H]5CC[C@@H](C4)N5)nc(CCN4CCCC4)nc3c2F)c2ccccc2c1 [P-0439, 4-(4-((1R,5S)-3,8-diazabicyclo[3.2.1]octan-3-yl)-8-fluoro-2-(2-(pyrrolidin-1-yl)ethyl)quinazolin-7-yl)naphthalen-2-ol] | 0.0001 to 10 | 10 to 100
18 | CN(C)c1ccc(Oc2nc(N3C[C@H]4CC[C@@H](C3)N4)c3cc(Cl)c(-c4c(O)cccc4F)c(F)c3n2)cc1 [P-0361, 2-(4-((1R,5S)-3,8-diazabicyclo[3.2.1]octan-3-yl)-6-chloro-2-(4-(dimethylamino)phenoxy)-8-fluoroquinazolin-7-yl)-3-fluorophenol] | 0.0001 to 10 | 0.0001 to 10
